From paper PMC6100568, “Novel Uridine Glycoconjugates, Derivatives of 4-Aminophenyl 1-Thioglycosides, as Potential Antiviral Compounds” (Molecules : A Journal of Synthetic Chemistry and Natural …, 2018)
Entries after “also recorded” stand apart in the source; their conditions may differ. Read-outs that look alike come from different tables or passages of the source.

Assays:
[1] = MTT cell viability assay in non-infected Huh-7.5 cells; settings: human
[2] = system: classical swine fever virus (CSFV)
[3] = system: classical swine fever virus (CSFV); experiment: microbe, parasite or virus in culture
in vitro [4] = settings: swine
[5] = system: HCVcc (Jc1/JFH genotype 2a); experiment: HCVcc pseudo-plaque reduction assay (IPMA) in Huh-7.5 cells; settings: for SI (CC50/IC50): HCV (Huh-7.5 cells); for IC50: Hepatitis C virus, Huh7.5
swine kidney (SK6) cells [6] = system: swine kidney (SK6) cells
in vitro [7] = settings: human
[8] = system: HCVcc genotype 2a JFH-1 strain; experiment: SEAP reporter assay in Huh7-J20 cells, three infection models (time-of-drug addition); format: cell-based, hepatitis C virus; settings: SEAP level; for effect on virus entry (Model 1): 1 h pre-treatment + 3 h infection with compound, then 72 h without; for antiviral activity in post-viral entry model (Model 3): compound added after 3 h infection for 72 h; for antiviral activity in full life cycle (Model 2): compound present before, during and 72 h after infection
[9] = system: HCV replication (Huh7-J17 replicon); experiment: HCV replicon Huh7-J17 luciferase assay; format: cell-based; settings: Hepatitis C virus; Huh7-J17 replicon cells, 72 h; read-out: IC50 (inhibition of HCV RNA replication, luciferase activity)
[10] = system: HCV viral RNA (NS5B gene); format: cell-based, hepatitis C virus
β-1,4GalT = molecular target: T1, β-1,4GalT (Bos taurus, UniProt P08037); experiment: Bovine milk β-1,4GalT I assay (RP-HPLC, fluorescence); format: biochemical; settings: for ability to inhibit β-1,4GalT activity: 0.8 mM
T1 construct: purchased; host or cells: bovine milk
T1 sequence (P08037 78-402 limits assumed): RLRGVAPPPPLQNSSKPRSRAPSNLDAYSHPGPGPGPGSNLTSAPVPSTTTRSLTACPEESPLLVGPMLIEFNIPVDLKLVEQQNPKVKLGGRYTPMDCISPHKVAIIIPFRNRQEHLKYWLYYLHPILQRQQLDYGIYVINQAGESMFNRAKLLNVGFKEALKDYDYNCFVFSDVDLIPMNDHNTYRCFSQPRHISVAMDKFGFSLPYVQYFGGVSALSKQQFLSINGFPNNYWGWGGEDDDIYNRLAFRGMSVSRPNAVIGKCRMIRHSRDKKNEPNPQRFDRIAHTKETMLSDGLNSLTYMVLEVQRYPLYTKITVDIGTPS

[11] = system: HCVcc (Jc1/JFH genotype 2a); settings: cited from earlier work
viral genome replication = settings: cited from earlier work
swine kidney (SK6) cells [12] = settings: cited from earlier work
Huh-7.5 cells [13] = settings: cited from earlier work
[14] = system: classical swine fever virus (CSFV); settings: cited from earlier work
Huh-7.5 cells [15] = experiment: MTT cell viability assay in non-infected Huh-7.5 cells; settings: concentration reducing cell viability by 50%, mean ± S.D.
Huh7-J17 cells = settings: human

SMILES | CC50 [1] | SI (CC50/IC50) [2] | IC50 [3] | CC50 (in vitro [4]) | SI (CC50/IC50) [5] | IC50 [5] | further results
CC(=O)OC[C@H]1O[C@@H](Sc2ccc(NC(=O)CCC(=O)OC[C@H]3O[C@@H](n4ccc(=O)[nH]c4=O)[C@@H]4OC(C)(C)O[C@@H]43)cc2)[C@H](OC(C)=O)[C@@H](OC(C)=O)[C@@H]1OC(C)=O [Compound 7] | 399 ± 11.4 µM | 1.1 | 97 ± 2 µM | 103 ± 5.9 µM | 1.4 | 281 ± 4.7 µM | –
CC(=O)OC[C@H]1O[C@@H](Sc2ccc(NC(=O)CCC(=O)OC[C@H]3O[C@@H](n4ccc(=O)[nH]c4=O)[C@H](O[Si](C)(C)C(C)(C)C)[C@@H]3O[Si](C)(C)C(C)(C)C)cc2)[C@H](OC(C)=O)[C@@H](OC(C)=O)[C@@H]1OC(C)=O [Compound 8] | 16 ± 1.1 µM | 9.3 | 4.5 ± 0.3 µM | 42 ± 1.9 µM | 4 | 4 ± 0.2 µM | cytotoxicity in words (swine kidney (SK6) cells [6]): relatively toxic
CC(=O)OC[C@H]1O[C@@H](Sc2ccc(NC(=O)CCC(=O)OC[C@H]3O[C@@H](n4ccc(=O)[nH]c4=O)[C@H](O[Si](C)(C)C(C)(C)C)[C@@H]3O[Si](C)(C)C(C)(C)C)cc2)[C@H](OC(C)=O)[C@@H](OC(C)=O)[C@H]1OC(C)=O [Compound 9] | 257 ± 5.7 µM | 29.5 | 4.2 ± 0.5 µM | 124 ± 6.8 µM | 52.4 | 4.9 ± 0.3 µM | inhibition of CSFV propagation (size and number of pseudo-plaques) [2]: dose-dependent inhibition; CC50 (in vitro [7]): 133 µM; effect on virus entry (Model 1) [8]: none of the tested compounds targeted virus entry; also recorded: neither compound affected viral entry; antiviral activity in post-viral entry model (Model 3) [8]: strong antiviral activity; antiviral activity in full life cycle (Model 2) [8]: strong antiviral activity; IC50 [9]: 4.18 µM; inhibition of viral HCV replication (pseudo-plaques) ([5]; Huh-7.5 cells, 4–10 µM, Figure 2): dose-dependent inhibition; amount of viral RNA (NS5B RT-PCR) [10]: significant dose-dependent inhibition
CC(=O)OC[C@H]1O[C@@H](Sc2ccc(NC(=O)[C@H]3O[C@@H](n4ccc(=O)[nH]c4=O)[C@@H]4OC(C)(C)O[C@@H]43)cc2)[C@H](OC(C)=O)[C@@H](OC(C)=O)[C@@H]1OC(C)=O [Compound 10] | 258 ± 6.2 µM | 2.2 | 149 ± 6.1 µM | 326 ± 11.2 µM | 1.7 | 154 ± 2.8 µM | –
CC(=O)OC[C@H]1O[C@@H](Sc2ccc(NC(=O)[C@H]3O[C@@H](n4ccc(=O)[nH]c4=O)[C@@H]4OC(C)(C)O[C@@H]43)cc2)[C@H](OC(C)=O)[C@@H](OC(C)=O)[C@H]1OC(C)=O [Compound 11] | 272 ± 4.5 µM | 1.6 | 217 ± 3.9 µM | 340 ± 9.1 µM | 1.6 | 167 ± 3.1 µM | –
CC(=O)OC[C@H]1O[C@@H](Sc2ccc(NC(=O)[C@H]3O[C@@H](n4ccc(=O)[nH]c4=O)[C@H](O[Si](C)(C)C(C)(C)C)[C@@H]3O[Si](C)(C)C(C)(C)C)cc2)[C@H](OC(C)=O)[C@@H](OC(C)=O)[C@@H]1OC(C)=O [Compound 12] | 270 ± 2.9 µM | – | 4 ± 0.1 µM | 56 ± 4.3 µM | 20.0 | 13.5 ± 0.7 µM | CC50 (in vitro [7]): 130 µM; effect on virus entry (Model 1) [8]: none of the tested compounds targeted virus entry; also recorded: neither compound affected viral entry; antiviral activity in post-viral entry model (Model 3) [8]: strong antiviral activity; antiviral activity in full life cycle (Model 2) [8]: strong antiviral activity; IC50 [9]: 4.24 µM; amount of viral RNA (NS5B RT-PCR) [10]: significant dose-dependent inhibition; cytotoxicity in words (swine kidney (SK6) cells [6]): relatively toxic
CC(=O)OC[C@H]1O[C@@H](Sc2ccc(NC(=O)[C@H]3O[C@@H](n4ccc(=O)[nH]c4=O)[C@H](O[Si](C)(C)C(C)(C)C)[C@@H]3O[Si](C)(C)C(C)(C)C)cc2)[C@H](OC(C)=O)[C@@H](OC(C)=O)[C@H]1OC(C)=O [Compound 13] | 14 ± 0.9 µM | 2.0 | 25 ± 0.9 µM | 49 ± 3.5 µM | 1.9 | 7.4 ± 0.2 µM | cytotoxicity in words (swine kidney (SK6) cells [6]): relatively toxic
O=C(Nc1ccc(S[C@@H]2O[C@H](CO)[C@@H](O)[C@H](O)[C@H]2O)cc1)[C@H]1O[C@@H](n2ccc(=O)[nH]c2=O)[C@H](O)[C@@H]1O [Compound 14] | > 475 µM | 1.1 | 241 ± 9.2 µM | 256 µM | >1.1 | 444 ± 12.4 µM | ability to inhibit β-1,4GalT activity (β-1,4GalT): demonstrated the ability of β-1,4GalT inhibition; also recorded: able to inhibit; IC50 (β-1,4GalT; inhibitor 0.1–0.8 mM, UDP-Gal donor, esculine acceptor): 330 µM; CC50 (swine kidney (SK6) cells [6]; swine): 265 ± 8.6 µM
O=C(Nc1ccc(S[C@@H]2O[C@H](CO)[C@H](O)[C@H](O)[C@H]2O)cc1)[C@H]1O[C@@H](n2ccc(=O)[nH]c2=O)[C@H](O)[C@@H]1O [Compound 15] | 460 ± 9.3 µM | 1.1 | 257 ± 6.9 µM | 278 ± 4.3 µM | 1.0 | 454 ± 9.8 µM | ability to inhibit β-1,4GalT activity (β-1,4GalT): demonstrated the ability of β-1,4GalT inhibition; reduction of enzyme activity (β-1,4GalT; maximum test concentration of 0.8 mM): 10%
CC(=O)OC[C@H]1O[C@@H](Sc2ccc(NC(=O)[C@H]3O[C@@H](n4ccc(=O)[nH]c4=O)[C@H](O[Si](C)(C)C(C)(C)C)[C@@H]3O[Si](C)(C)C(C)(C)C)cn2)[C@H](OC(C)=O)[C@@H](OC(C)=O)[C@H]1OC(C)=O [II] | – | – | – | – | – | – | IC50 [11]: 7 ± 0.4 µM; SI (CC50/IC50) [11]: 24.7; reduction of viral genome replication (viral genome replication): up to 90%; CC50 (swine kidney (SK6) cells [12]): 151 ± 3.1 µM; CC50 (Huh-7.5 cells [13]): 173 ± 3.2 µM; IC50 [14]: 6 ± 0.4 µM; SI (CC50/IC50) [14]: 25.2
CC(=O)OC[C@H]1O[C@@H](Sc2ccc(NC(=O)[C@H]3O[C@@H](n4ccc(=O)[nH]c4=O)[C@H](O[Si](C)(C)C(C)(C)C)[C@@H]3O[Si](C)(C)C(C)(C)C)cn2)[C@H](OC(C)=O)[C@@H](OC(C)=O)[C@@H]1OC(C)=O [I] | – | – | – | – | – | – | IC50 [11]: 7 ± 0.7 µM; SI (CC50/IC50) [11]: 19.3; reduction of viral genome replication (viral genome replication): up to 90%; CC50 (swine kidney (SK6) cells [12]): 86 ± 2.4 µM; CC50 (Huh-7.5 cells [13]): 135 ± 2.4 µM; IC50 [14]: 3 ± 0.1 µM; SI (CC50/IC50) [14]: 28.7
CC(C)OC(=O)[C@H](C)N[P@](=O)(OC[C@H]1O[C@@H](n2ccc(=O)[nH]c2=O)[C@](C)(F)[C@@H]1O)Oc1ccccc1 [SOFOSBUVIR, sofosbuvir, reference compound] | – | – | – | – | 119.2 | 0.26 ± 0.02 µM | CC50 (Huh-7.5 cells [15]): 31 ± 1.2 µM; CC50 (Huh7-J17 cells): 23.5 µM; effect on virus entry (Model 1) [8]: no effect on virus entry; antiviral activity in post-viral entry model (Model 3) [8]: exerts its antiviral activity effect; antiviral activity in full life cycle (Model 2) [8]: exerts its antiviral activity effect; IC50 [9]: 0.028 µM
